Experimental data from US9605047B2, “Compositions and methods for treating hypertension” (The Brigham and Women's Hospital, Inc., priority 2012, dated 2017).
Entries after “also recorded” stand apart in the source; their conditions may differ.

Key:
[1] = tested on: rats with SU-5416/hypoxia-induced PAH; experiment: SU-5416/hypoxia-induced PAH, prevention study with eplerenone; format: in vivo, rat; conditions: SU-5416 (20 mg/kg s.c.) plus chronic hypoxia 21 days vs normal rats; n=5
[2] = tested on: HPAECs; experiment: 3-Nitrotyrosine immunohistochemistry in HPAECs; format: cell-based, human; conditions: V 24.1±3.3, n=5
Procedure: 3-Nitrotyrosine immunohistochemistry. Cells grown to confluence on glass chamber slides were fixed following treatments and anti-3-nitrotyrosine immunohistochemistry (Santa Cruz Biotechnology) was performed using the 3,3′-diaminobenzidine substrate method (Vector laboratories) as described previously.^1

[3] = tested on: eNOS; experiment: eNOS activity ([14C] arginine, NOS activity kit) in HPAECs; format: cell-based, human; conditions: ET-1 (10 nM) stimulated HPAECs, without or with aldosterone; n=3
Procedure: eNOS activity. eNOS activity was measured using the NOS activity kit (Cayman) according to the manufacturer's instructions with some modifications. Cells were washed with PBS containing 1 mM EDTA, transferred to a microcentrifuge tube, and centrifuged at 14,000×g at 4° C. for 2 min. The supernatant was decanted and homogenization buffer (250 mM Tris-HCl, pH 7.4, 6 μM BH4, 2 μM flavin adenine dinucleotide, and 2 μM flavin adenine mononucleotide) was added to the cell pellets. […] The samples were then centrifuged at 14,000×g for 30 seconds and radioactivity of the eluant was quantified in a liquid scintillation counter (Beckman-Coulter).

[4] = tested on: PGC-1α and steroidogenesis factor-1 (SF); experiment: PGC-1α and SF protein expression in HPAECs by Western analysis; format: cell-based, human; conditions: for PGC-1α protein expression levels: 24 h, n=3
Procedure: (§1) Cell culture and treatments. Human pulmonary artery endothelial cells (HPAECs) (Lonza) (male donors) were grown to confluence using phenol-free EGM-2 medium supplemented with 5% fetal bovine serum at 37° C., 5% CO2. Cells were passaged twice-weekly using 0.5% trypsin/EDTA, and experiments were performed on cells from passages 4-10. Aldosterone (Steraloids) and ET-1 (1-100 nM) (Sigma-Aldrich) were dissolved in dimethylsufloxide ([…]) and deoxygenated water, respectively, which served as vehicle controls. Cells were treated with aldosterone (10^−−10^−7 mol/L) for 24 h and in selected experiments co-incubated with the mineralocorticoid receptor inhibitor spironolactone (10 μM/l) (Sigma-Aldrich).
(§2) Immunoblotting. Proteins were size fractionated electrophoretically using SDS-PAGE and transferred to polyvinylidene fluoride membranes. The membranes were incubated with anti-ETA (Santa Cruz Biotechnology), anti-ETB (Santa Cruz Biotechnology), anti-NOX4 (Santa Cruz Biotechnology), anti-p22P^phox (Santa Cruz), anti-eNOS (Cell Signaling), anti-PGC-1α (Santa Cruz Biotechnology), and anti-SF (Santa Cruz Biotechnology) antibodies overnight at 4° C. and visualized using the ECL detection system (Amersham Biosciences). In experiments to assess ETA expression, purified ETA protein (Novus Biological) was loaded to serve as an internal control.

[5] = tested on: HPAECs; experiment: Aldosterone levels in HPAEC culture medium by enzyme immunoassay; format: cell-based, human; conditions: 24 h, n=4
[6] = tested on: HPAECs; experiment: Amplex Red assay of hydrogen peroxide levels in HPAECs; format: cell-based, human; conditions: ET-1 10 nM, HPAECs; p=0.43, n=4
Procedure: Human pulmonary artery endothelial cells (HPAECs) (Lonza) (male donors) were grown to confluence using phenol-free EGM-2 medium supplemented with 5% fetal bovine serum at 37° C., 5% CO2. Cells were passaged twice-weekly using 0.5% trypsin/EDTA, and experiments were performed on cells from passages 4-10. Aldosterone (Steraloids) and ET-1 (1-100 nM) (Sigma-Aldrich) were dissolved in dimethylsufloxide (10 nmol/L) and deoxygenated water, respectively, which served as vehicle controls. Cells were treated with aldosterone (10^−−10^−7 mol/L) for 24 h and in selected experiments co-incubated with the mineralocorticoid receptor inhibitor spironolactone (10 μM/l) (Sigma-Aldrich).

[7] = tested on: ETB-dependent NO. generation in HPAECs; experiment: NO. metabolites (NO2−, NO3−) in ET-1-stimulated HPAECs; format: cell-based, human
Procedure: Cell culture and treatments. Human pulmonary artery endothelial cells (HPAECs) (Lonza) (male donors) were grown to confluence using phenol-free EGM-2 medium supplemented with 5% fetal bovine serum at 37° C., 5% CO2. Cells were passaged twice-weekly using 0.5% trypsin/EDTA, and experiments were performed on cells from passages 4-10. Aldosterone (Steraloids) and ET-1 (1-100 nM) (Sigma-Aldrich) were dissolved in dimethylsufloxide (10 nmol/L) and deoxygenated water, respectively, which served as vehicle controls. Cells were treated with aldosterone (10^−−10^−7 mol/L) for 24 h and in selected experiments co-incubated with the mineralocorticoid receptor inhibitor spironolactone (10 μM/l) (Sigma-Aldrich).

[8] = tested on: PGC-1α / steroidogenesis factor-1 (SF); experiment: Co-immunoprecipitation of PGC-1α with SF in HPAECs; format: cell-based, human; conditions: ET-1 10 nM, 24 h, n=3
Procedure: Co-immunoprecipitation of proteins. Cell monolayers were washed twice with ice-cold PBS and incubated on ice with RIPA buffer supplemented with various protease inhibitors (Millpore). Cells were scraped with a rubber policeman and samples were rotated at 4° C. for 15 min. Lysates were centrifuged at 14,000×g at 4° C. for 15 min and the then pre-cleared with a 50% slurry of Protein G agarose beads (Santa Cruz Biotechnology) mixed with PBS. Following removal of the beads by centrifugation, cell lysates were incubated with an anti-ETB or anti-PGC-1α antibody (Santa Cruz Biotechnology) overnight at 4° C. The immunocomplex was captured by incubating lysates with 50% Protein G agarose bead slurry at 4° C. for 1 h. Beads were collected by pulse centrifugation, resuspended in non-reducing sample buffer, and then boiled for 10 min to dissociate the immunocomplex from the beads. Western analysis was performed with an anti-SF (Santa Cruz) or anti-sulfenic acid (R—SOH) antibody (Millpore) as described above.

[9] = tested on: CYP11B2 promoter; experiment: Chromatin immunoprecipitation assay, CYP11B2 promoter; format: cell-based, human; conditions: ET-1 10 nM, 24 h; vs V 16.3±9.8; n=3
Procedure: Chromatin immunoprecipitation assay. Chromatin immunoprecipitation assays were performed using the QuikChIP assay (Imgenex) according to the manufacturer's instructions. PCR amplification was performed on the proximal region of the CYP11B2 promoter region containing the gonadotrope-specific element ^51. The primers used were: forward 5′-[…]-3′ (SEQ ID NO:2) and reverse 5′-[…]-3′ (SEQ ID NO: 3). CYP11B2 primers used for PCR were forward: 5′ […]-3′ (SEQ ID NO: 4) and reverse: 5′-[…]-3′ (SEQ ID NO:5).

[10] = tested on: CYP11B2 (aldosterone synthase); experiment: CYP11B2 protein expression in HPAECs by Western analysis; format: cell-based, human; conditions: 24 h, n=3
Procedure: as §1, §2

[11] = target: T1, ETB cysteinyl thiols (region containing Cys405) (Homo sapiens, UniProt P24530); experiment: Western analysis to detect ETB disulfide bond formation in HPAECs; format: cell-based; conditions: aldosterone 10^−7 mol/L 24 h or H2O2 200 μmol/L 20 min
T1 construct: endogenous in cells; host or cells: HPAECs (Lonza)
T1 sequence (P24530 27-442): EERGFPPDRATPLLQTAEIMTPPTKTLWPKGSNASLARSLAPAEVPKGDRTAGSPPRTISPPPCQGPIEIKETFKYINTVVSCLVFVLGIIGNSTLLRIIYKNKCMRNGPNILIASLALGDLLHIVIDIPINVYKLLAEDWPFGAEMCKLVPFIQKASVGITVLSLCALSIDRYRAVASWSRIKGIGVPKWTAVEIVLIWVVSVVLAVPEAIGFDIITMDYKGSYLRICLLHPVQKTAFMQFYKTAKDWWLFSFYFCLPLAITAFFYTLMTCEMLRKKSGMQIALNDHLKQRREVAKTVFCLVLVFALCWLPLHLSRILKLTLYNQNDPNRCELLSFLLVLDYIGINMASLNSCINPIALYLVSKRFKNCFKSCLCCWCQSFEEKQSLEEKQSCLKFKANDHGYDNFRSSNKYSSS
Procedure: (§3) Western analysis to detect ETB disfulfide bond formation. Western analysis to detect ETB disulfide bond formation was performed as described previously.^7 Briefly, protein extracts from cells were lysed in alkylating buffer containing 0.1 M Tris-HCL, pH 6.8, 1% SDS, 100 mM iodoacetamide, and 100 mM N-ethylmaleimide, and sonicated on ice for 5 min followed by a 30-min incubation at 25° C. Alkylated proteins were then precipitated with acetone. Proteins were resuspended in 50 μl of 0.1 M Tris-HCl, pH 7.4, 1% SDS; and disulfides were reduced with 5 mM tris(2-carboxyethyl)phosphine hydrochloride (TCEP). Following a 20-min incubation at 25° C., TCEP was removed with a Micro Bio-Spin™ column 6 (Bio-Rad), and 1% SDS was added to the eluant. The cysteines previously participating in a disulfide bond, now reduced, were labeled with 1 mM polyethylene glycol-conjugated maleimide (molecular mass 10 kDa) (Fluka). After a 1-h incubation at 25° C., proteins were precipitated with acetone, resuspended in 50 μl of non-reducing SDS electrophoresis buffer, and boiled for 10 min. Protein samples were then size-fractionated electrophoretically using SDS-PAGE, and transferred to a polyvinylidene fluoride membrane. […]

[12] = tested on: ETB-dependent NO. synthesis in COS-7 cells; experiment: ETB-dependent NO2− formation in transfected COS-7 cells after H2O2; format: cell-based, monkey (African green monkey); conditions: COS-7 cells co-expressing WT-eNOS; H2O2 200 μmol/L 60 min, then ET-1 10 nM 10 min; n=4
Procedure: NO. metabolites. Nitrite (NO2^−) and nitrate (NO3^−) were measured in cell culture medium containing 2% fetal bovine serum and L-arginine (1 mmol/l) (Sigma-Aldrich) by 1(H)-naphthotriazole fluorescence (Cayman) as previously reported.^1 To measure NO2^− levels in whole lung tissue, lung specimens were harvested from rats and snap frozen in liquid nitrogen. Samples were thawed, homogenized in PBS (pH 7.4), and centrifuged at 14,000×g at 4° C. for 20 min. The supernatant was ultrafiltered using a 30 kDa molecular weight filter (Millpore), and the eluant was used to measure NO2^− levels according to manufacturer's instructions (Cayman).
Site-directed mutagenesis and transfection. cDNAs encoding wild type (WT) eNOS and WT-ETB from human were cloned into the mammalian expression vector pCMV6 (Origene). The C405A-ETB mutant was purchased from Genewiz (South Plainfield, N.J.). […] After this time, the medium was replaced with Dulbecco's Modified Eagle Medium (Gibco) supplemented with 10% FBS, and experiments were performed after 24 h.

[13] = target: T2, ETB (Homo sapiens, UniProt P24530); experiment: Disulfide bond formation of ETB in transfected COS-7 cells exposed to H2O2; format: cell-based; conditions: H2O2 200 μmol/L for 20 min
T2 construct: host or cells: COS-7
T2 sequence (P24530 27-442): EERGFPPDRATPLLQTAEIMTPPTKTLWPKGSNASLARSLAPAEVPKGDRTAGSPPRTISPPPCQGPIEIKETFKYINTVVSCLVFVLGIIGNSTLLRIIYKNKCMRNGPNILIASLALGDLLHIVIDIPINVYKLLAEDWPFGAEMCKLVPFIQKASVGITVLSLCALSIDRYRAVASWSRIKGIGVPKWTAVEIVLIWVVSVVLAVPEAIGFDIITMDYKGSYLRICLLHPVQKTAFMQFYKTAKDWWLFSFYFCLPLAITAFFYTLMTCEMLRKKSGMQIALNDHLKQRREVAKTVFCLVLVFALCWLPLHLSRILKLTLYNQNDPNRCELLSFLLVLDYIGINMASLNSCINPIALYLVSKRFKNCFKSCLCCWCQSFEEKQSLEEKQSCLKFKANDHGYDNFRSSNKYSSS
Procedure: as §3

Cc1cc(C)c(/C=C2\C(=O)Nc3ccccc32)[nH]1 [SU-5416]
increase in plasma aldosterone levels [1]: 418%

endothelin-1 [ET-1]
levels of 3-nitrotyrosine [2]: 31.2±3.2 arb. units
eNOS activity [3]: 18.5±3.5 [^14C] L-citrulline c.p.m./μg protein
PGC-1α protein expression levels ([4]; ET-1 1 nM): 176.5±52.8 % control
PGC-1α protein expression levels ([4]; ET-1 10 nM): 224.7±68.1 % control
PGC-1α protein expression levels ([4]; ET-1 100 nM): 296.7±145.8 % control
SF protein levels ([4]; ET-1, 24 h): no effect
aldosterone levels in the cell culture medium ([5]; ET-1 1 nM): 241.1±44.8 % control
aldosterone levels in the cell culture medium ([5]; ET-1 10 nM): 283.5±94.7 % control
aldosterone levels in the cell culture medium ([5]; ET-1 100 nM): 396.0±116.5 % control
H2O2 levels compared to V-treated cells [6]: no effect
NO2^− generation ([7]; ET-1 10 nM, maximum effect at 10 min, HPAECs, vs V 29.4±3.6, n=3): 139.4±31.8 μM/μg protein
total NO. metabolite (NOx: NO2^−+NO3^−) formation ([7]; ET-1 (10 nM) stimulated HPAECs, without or with aldosterone, n=3): 157.9±12.7 μM/μg protein
NO2^−/NO3^− ratio compared to V ([7]; ET-1 alone, HPAECs): did not affect
association between PGC-1α and SF (co-immunoprecipitation) [8]: 1260±104 arb. units
SF binding to the CYP11B2 promoter [9]: 61.6±9.3 arb. units
CYP11B2 protein expression levels ([10]; ET-1 1 nM): 157.3±27.5 % control
CYP11B2 protein expression levels ([10]; ET-1 10 nM): 180.4±13.4 % control
CYP11B2 protein expression levels ([10]; ET-1 100 nM): 234.8±4.3 % control

OO [H2O2, hydrogen peroxide]
ETB disulfide bond formation (bands at 70 kDa and 90 kDa) [11]: de novo formation of one or two disulfide bonds

B1: WT-ETB: wild type human ETB expressed in COS-7 cells (protein)
chain: EERGFPPDRATPLLQTAEIMTPPTKTLWPKGSNASLARSLAPAEVPKGDRTAGSPPRTISPPPCQGPIEIKETFKYINTVVSCLVFVLGIIGNSTLLRIIYKNKCMRNGPNILIASLALGDLLHIVIDIPINVYKLLAEDWPFGAEMCKLVPFIQKASVGITVLSLCALSIDRYRAVASWSRIKGIGVPKWTAVEIVLIWVVSVVLAVPEAIGFDIITMDYKGSYLRICLLHPVQKTAFMQFYKTAKDWWLFSFYFCLPLAITAFFYTLMTCEMLRKKSGMQIALNDHLKQRREVAKTVFCLVLVFALCWLPLHLSRILKLTLYNQNDPNRCELLSFLLVLDYIGINMASLNSCINPIALYLVSKRFKNCFKSCLCCWCQSFEEKQSLEEKQSCLKFKANDHGYDNFRSSNKYSSS
decrease of ET-1-stimulated NO2^− formation by H2O2 compared to V-treated cells [12]: 78.0%
disulfide bond formation of ETB [13]: formation of one or two disulfide bonds; also recorded: formation of 1 or 2 disulfide bonds

B2: C405A-ETB (protein)
chain: EERGFPPDRATPLLQTAEIMTPPTKTLWPKGSNASLARSLAPAEVPKGDRTAGSPPRTISPPPCQGPIEIKETFKYINTVVSCLVFVLGIIGNSTLLRIIYKNKCMRNGPNILIASLALGDLLHIVIDIPINVYKLLAEDWPFGAEMCKLVPFIQKASVGITVLSLCALSIDRYRAVASWSRIKGIGVPKWTAVEIVLIWVVSVVLAVPEAIGFDIITMDYKGSYLRICLLHPVQKTAFMQFYKTAKDWWLFSFYFCLPLAITAFFYTLMTCEMLRKKSGMQIALNDHLKQRREVAKTVFCLVLVFALCWLPLHLSRILKLTLYNQNDPNRCELLSFLLVLDYIGINMASLNSCINPIALYLVSKRFKNCFKSCLCCWAQSFEEKQSLEEKQSCLKFKANDHGYDNFRSSNKYSSS
decrease of ET-1-stimulated NO2^− formation by H2O2 compared to V-treated cells [12]: 45.0%
disulfide bond formation of ETB [13]: resistant to the formation of disulfide bonds; also recorded: resistant to disulfide bond formation
